Earlier results in article PMC9276671, “A first-in-human Phase I dose-escalation trial of the novel therapeutic peptide, ALM201, demonstrates a favourable safety profile in unselected patients with ovarian cancer and other advanced solid tumours” (British Journal of Cancer, 2022).
No end group written: not given here.

Tested on: HT29, DU145 and MDA-231 xenografts
Details: cited from earlier work

IRQQPRDPPTETLELEVSPDPAS [ALM201]
Tumour size relative to vehicle controls (0.3 mg/kg and 3.0 mg/kg daily or three times weekly, HT29, DU145 and MDA-231, ref Investigator brochure (IB)): significant inhibition of tumour size
Anti-tumour activity in vivo (single agent or in combination with chemotherapeutic agents, tumour xenograft models, ref Almac Discovery, manuscript in preparation): significant anti-tumour activity
